Measurements as given in ChEMBL document CHEMBL1909046, “DrugMatrix in vitro pharmacology data”.

Columns and labels:
[1] = DRUGMATRIX: Sodium/nucleoside co-transporter radioligand binding (ligand: nitrobenzylthioinosine); assay type: cell membranes, Cavia porcellus, Dunkin-Hartley, Cerebral cortex, Membrane; conditions: Not Active = under 50% inhibition at 10 µM
[2] = target: T1, 5-hydroxytryptamine receptor 2C (Homo sapiens, UniProt P28335); experiment: DRUGMATRIX: Serotonin (5-Hydroxytryptamine) 5-HT2C radioligand binding (ligand: [3H] Mesulergine); assay type: cell membranes, CHO-K1, Membrane; conditions: cho-k1; Not Active = under 50% inhibition at 10 µM
T1 sequence (P28335 whole entry): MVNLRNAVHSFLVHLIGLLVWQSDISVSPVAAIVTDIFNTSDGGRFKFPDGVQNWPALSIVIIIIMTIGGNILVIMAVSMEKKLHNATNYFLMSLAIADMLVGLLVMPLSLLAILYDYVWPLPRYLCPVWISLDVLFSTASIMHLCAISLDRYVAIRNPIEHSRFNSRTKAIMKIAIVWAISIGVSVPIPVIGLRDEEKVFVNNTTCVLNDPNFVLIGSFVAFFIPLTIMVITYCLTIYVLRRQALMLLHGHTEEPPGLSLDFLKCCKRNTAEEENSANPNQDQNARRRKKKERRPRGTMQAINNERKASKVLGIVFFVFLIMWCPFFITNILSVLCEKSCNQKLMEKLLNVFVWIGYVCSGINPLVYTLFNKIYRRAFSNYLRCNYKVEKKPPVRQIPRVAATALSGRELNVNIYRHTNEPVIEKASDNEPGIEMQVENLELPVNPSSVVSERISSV

[3] = target: Carbonic anhydrase 2 (Homo sapiens, UniProt P00918); experiment: DRUGMATRIX: Carbonic Anhydrase II enzyme inhibition (substrate: 4-Nitrophenyl acetate (4-NPA)); assay type: tissue-based; conditions: erythrocyte; Not Active = under 50% inhibition at 10 µM
[4] = target: T2, C-C chemokine receptor type 4 (Homo sapiens, UniProt P51679); assay type: cell membranes, Membrane; conditions: chem-1; also: in other assays of this panel Not Active means under 50% inhibition at 10 µM
T2 sequence (P51679 whole entry): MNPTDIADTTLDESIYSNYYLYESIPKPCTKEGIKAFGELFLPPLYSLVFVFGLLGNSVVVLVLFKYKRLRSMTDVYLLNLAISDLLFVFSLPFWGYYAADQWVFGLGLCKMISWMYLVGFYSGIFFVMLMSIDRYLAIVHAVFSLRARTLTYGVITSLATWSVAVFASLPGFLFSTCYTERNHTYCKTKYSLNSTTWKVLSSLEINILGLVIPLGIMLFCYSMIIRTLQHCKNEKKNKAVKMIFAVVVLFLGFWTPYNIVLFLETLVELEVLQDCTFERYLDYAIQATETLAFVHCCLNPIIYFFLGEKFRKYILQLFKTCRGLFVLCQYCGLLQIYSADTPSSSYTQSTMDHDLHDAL

[5] = DRUGMATRIX: Platelet-Derived Growth Factor (PDGF) radioligand binding (ligand: [125I] PDGF); assay type: cell-based; conditions: nih3t3; Not Active = under 50% inhibition at 10 µM
[6] = target: Mitogen-activated protein kinase 14 (Homo sapiens, UniProt Q16539); set-up: species or system Escherichia coli;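 also: inhibition of p38alpha enzyme activity in a biochemical kinase assay, with myelin basic protein serving as substrate; in other assays of this panel Not Active means under 50% inhibition at 10 µM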
[7] = target: Tyrosine-protein kinase Lck (Homo sapiens, UniProt P06239); experiment: DRUGMATRIX: Protein Tyrosine Kinase, LCK enzyme inhibition (substrate: Poly(Glu:Tyr)); assay type: cell-based, Insect cells; conditions: insect cells, Not Active = under 50% inhibition at 10 µM
Tyrosine-protein kinase Lck, sequence (P06239 whole entry): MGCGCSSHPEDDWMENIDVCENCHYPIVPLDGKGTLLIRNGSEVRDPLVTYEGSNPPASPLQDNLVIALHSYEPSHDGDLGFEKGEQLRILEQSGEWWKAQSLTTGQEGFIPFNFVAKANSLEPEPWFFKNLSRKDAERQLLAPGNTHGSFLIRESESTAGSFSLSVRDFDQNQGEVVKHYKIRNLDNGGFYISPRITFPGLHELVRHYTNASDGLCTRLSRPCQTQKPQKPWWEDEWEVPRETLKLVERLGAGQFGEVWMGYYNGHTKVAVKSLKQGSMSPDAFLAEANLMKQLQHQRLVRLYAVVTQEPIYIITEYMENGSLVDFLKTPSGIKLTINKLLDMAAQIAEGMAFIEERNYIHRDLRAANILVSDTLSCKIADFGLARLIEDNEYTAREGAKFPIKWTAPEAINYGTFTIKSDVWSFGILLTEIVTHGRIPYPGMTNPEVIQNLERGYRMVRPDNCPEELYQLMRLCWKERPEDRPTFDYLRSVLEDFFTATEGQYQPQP

Mitogen-activated protein kinase 14, sequence (Q16539 whole entry): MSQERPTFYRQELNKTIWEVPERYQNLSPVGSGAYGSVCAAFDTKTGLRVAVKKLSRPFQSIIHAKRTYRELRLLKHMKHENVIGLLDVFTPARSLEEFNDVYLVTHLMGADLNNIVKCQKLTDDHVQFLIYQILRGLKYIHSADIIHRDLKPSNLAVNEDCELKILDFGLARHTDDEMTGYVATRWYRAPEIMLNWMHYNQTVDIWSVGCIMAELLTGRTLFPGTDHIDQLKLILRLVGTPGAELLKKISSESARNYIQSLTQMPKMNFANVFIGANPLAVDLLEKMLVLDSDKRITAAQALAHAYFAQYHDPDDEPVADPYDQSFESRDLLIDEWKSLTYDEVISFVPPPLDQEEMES

Row | Compound | IC50 [1] | Ki [1] | IC50 [2] | IC50 [3] | IC50 [4] | IC50 [5] | Ki [5] | IC50 [6] | IC50 [7] | Ki [2] | Ki [3] | Ki [4] | Ki [6] | Ki [7] | IC50 ([7]; read-out: IC50) [µM]
1 | C[C@@H]1O[C@@H](O[C@@H]2C=C3CC[C@@H]4[C@H](CC[C@]5(C)[C@@H](c6ccc(=O)oc6)CC[C@]45O)[C@@]3(C)CC2)[C@H](O)[C@H](O)[C@H]1O [PROSCILLARIDIN] | Not Active | Not Active | Not Active | Not Active | Not Active | Not Active | Not Active | Not Active | Not Active |  |  |  |  |  | 
2 | Oc1cccc(O)c1O [PYROGALLOL] | Not Active | Not Active | Not Active | Not Active | Not Active | Not Active | Not Active | Not Active | Not Active |  |  |  |  |  | 
3 | AURANOFIN | Not Active | Not Active | Not Active | Not Active | Not Active | Not Active | Not Active | Not Active | Not Active | Not Active | Not Active | Not Active | Not Active | Not Active | 
4 | GADOPENTETATE DIMEGLUMINE | Not Active | Not Active | Not Active | Not Active | Not Active | Not Active | Not Active | Not Active | Not Active | Not Active | Not Active | Not Active | Not Active | Not Active | 
5 | GENTAMICIN | Not Active | Not Active | Not Active | Not Active | Not Active | Not Active | Not Active | Not Active | Not Active | Not Active | Not Active | Not Active | Not Active | Not Active | 
6 | GRAMICIDIN | Not Active | Not Active | Not Active | Not Active | Not Active | Not Active | Not Active | Not Active |  | Not Active | Not Active | Not Active | Not Active |  | 1.09
7 | NYSTATIN | Not Active | Not Active | Not Active | Not Active | Not Active | Not Active | Not Active | Not Active | Not Active | Not Active | Not Active | Not Active | Not Active | Not Active | 
